# Tests used:
# Format in all cases: functional
# Fusarium graminearum [1] = test: Antifungal activity against Fusarium graminearum by microbroth dilution assay
# Aspergillus flavus [2] = test: Antifungal activity against Aspergillus flavus after 12 to 18 hrs
# Fusarium graminearum [3] = test: Antifungal activity against Fusarium graminearum after 12 to 18 hrs
# Escherichia coli [4] = test: Antibacterial activity against Escherichia coli ATCC 25922 after 12 to 18 hrs
# Staphylococcus aureus [5] = test: Antibacterial activity against Staphylococcus aureus ATCC 25923 after 12 to 18 hrs
# Escherichia coli [6] = test: Antibacterial activity against Escherichia coli TG1 by microbroth dilution assay
# Staphylococcus aureus [7] = test: Antibacterial activity against Staphylococcus aureus ATCC 25923 by microbroth dilution assay
# Pseudomonas aeruginosa = test: Antibacterial activity against Pseudomonas aeruginosa ATCC 27853 by microbroth dilution assay
# Enterococcus faecalis = test: Antibacterial activity against Enterococcus faecalis ATCC 29212 by microbroth dilution assay
# Klebsiella pneumoniae [8] = test: Antibacterial activity against Klebsiella pneumoniae […] by microbroth dilution assay
# Klebsiella pneumoniae [9] = test: Antibacterial activity against Klebsiella pneumoniae ATCC 700603 by microbroth dilution assay
# Rhodotorula mucilaginosa = test: Antifungal activity against Rhodotorula pilimanae by microbroth dilution assay
# Candida albicans [10] = test: Antifungal activity against Candida albicans by microbroth dilution assay
# Saccharomyces cerevisiae = test: Antifungal activity against Saccharomyces cerevisiae W303 by microbroth dilution assay
# Fusarium oxysporum [11] = test: Antifungal activity against Fusarium oxysporum by microbroth dilution assay
# Cryptococcus neoformans [12] = test: Antifungal activity against Cryptococcus neoformans 90-26
# Cryptococcus neoformans [13] = test: Antifungal activity against Cryptococcus neoformans H99; conditions: var grubii H99
# Cryptococcus neoformans [14] = test: Antifungal activity against Cryptococcus neoformans 94-2586
# Clavispora lusitaniae = test: Antifungal activity against Candida lusitaniae 95-767
# Diutina rugosa = test: Antifungal activity against Candida rugosa 95-967
# Candida tropicalis = test: Antifungal activity against Candida tropicalis 95-41
# Candida albicans [15] = test: Antifungal activity against Candida albicans ATCC 10231
# Candida albicans [16] = test: Antifungal activity against resistant Candida albicans ATCC 64124
# Candida albicans [17] = test: Antifungal activity against sensitive Candida albicans MYA-2876
# Candida albicans [18] = test: Antifungal activity against Candida albicans B-311
# Candida albicans [19] = test: Antifungal activity against Candida albicans 94-2181
# Candida parapsilosis [20] = test: Antifungal activity against resistant Candida parapsilosis; conditions: Lodderomyces parapsilosis
# Candida parapsilosis [21] = test: Antifungal activity against sensitive Candida parapsilosis; conditions: Lodderomyces parapsilosis
# Fusarium graminearum [22] = test: Antifungal activity against Fusarium graminearum B4-5A strain A after 48 hrs by microdilution assay
# Fusarium graminearum [23] = test: Antifungal activity against Fusarium graminearum B4-5A strain B after 48 hrs by microdilution assay
# Fusarium graminearum [24] = test: Antifungal activity against Fusarium graminearum B4-5A strain C after 48 hrs by microdilution assay
# Fusarium graminearum [25] = test: Antifungal activity against Fusarium graminearum B4-5A strain D after 48 hrs by microdilution assay
# Fusarium graminearum [26] = test: Antifungal activity against Fusarium graminearum B4-5A strain E after 48 hrs by microdilution assay
# Kluyveromyces marxianus = test: Antifungal activity against Candida pseudotropicalis YOGI
# Aspergillus flavus [27] = test: Antifungal activity against Aspergillus flavus
# Escherichia coli [28] = test: Antibacterial activity against Escherichia coli TG1
# Staphylococcus aureus [29] = test: Antibacterial activity against Staphylococcus aureus ATCC 25923
# Micrococcus luteus = test: Antibacterial activity against Micrococcus luteus ATCC 10240
# Fusarium graminearum [30] = test: Antifungal activity against Fusarium graminearum B-4-5A
# Fusarium oxysporum [31] = test: Antifungal activity against Fusarium oxysporum
# Aspergillus niger = test: Antifungal activity against Aspergillus niger
# Fusarium graminearum [32] = test: Antifungal activity against Fusarium graminearum infected in wheat plant assessed as contamination of wheat heads and kernels with deoxynivalenol at 2.8 ml/L (reference value: 1.2 ppm)
# Fusarium graminearum [33] = test: Antifungal activity against Fusarium graminearum infected in wheat plant assessed as contamination of wheat heads and kernels with deoxynivalenol at 5.5 ml/L (reference value: 1.2 ppm)
# Fusarium graminearum [34] = test: Antifungal activity against Fusarium graminearum infected in wheat plant assessed as contamination of wheat heads and kernels with deoxynivalenol at 4 ml/L (reference value: 1.2 ppm)
# Fusarium graminearum [35] = test: Antifungal activity against Fusarium graminearum infected in wheat plant assessed as contamination of wheat heads and kernels with deoxynivalenol at 8 ml/L (reference value: 1.2 ppm)
compound,measurement,setting,value
CCCCCCCCO[C@@H]1[C@@H](N)[C@@H](O[C@H]2[C@H](O)[C@@H](O[C@H]3O[C@H](CO)[C@@H](O)[C@H](O)[C@H]3O)[C@H](N)C[C@@H]2N)O[C@H](CN)[C@H]1O,MIC,Fusarium graminearum [1],> 500 µg/mL
CCCCCCCCCOC[C@H]1O[C@H](O[C@@H]2[C@@H](O)[C@H](O[C@H]3O[C@H](CN)[C@@H](O)[C@H](O)[C@H]3O)[C@@H](N)C[C@H]2N)[C@H](O)[C@@H](N)[C@@H]1OCCCCCCCCC,MIC,Aspergillus flavus [2],500 µg/mL
same,MIC,Fusarium graminearum [3],125 µg/mL
same,MIC,Escherichia coli [4],16 µg/mL
same,MIC,Staphylococcus aureus [5],8 µg/mL
CCCCCCCO[C@H]1[C@H](N)[C@@H](O)[C@@H](O[C@@H]2[C@@H](O)[C@H](O[C@H]3O[C@H](CN)[C@@H](O)[C@H](O)[C@H]3O)[C@@H](N)C[C@H]2N)O[C@@H]1CO,MIC,Aspergillus flavus [2],> 500 µg/mL
same,MIC,Fusarium graminearum [3],125 µg/mL
same,MIC,Escherichia coli [4],≥ 250 µg/mL
same,MIC,Staphylococcus aureus [5],125 µg/mL
"CCCCCCCCO[C@@H]1[C@@H](O)[C@H](O)[C@H](O[C@H]2[C@H](O)[C@@H](O[C@@H]3O[C@@H](CN)[C@H](O)[C@@H](O)[C@@H]3N)[C@H](N)C[C@@H]2N)O[C@H]1CO (single isomer, unassigned)",MIC,Fusarium graminearum [1],7.8 µg/mL
CCCCCCOC[C@@H]1O[C@@H](O[C@@H]2[C@@H](O)[C@H](O[C@@H]3O[C@@H](CN)[C@H](O)[C@@H](O)[C@@H]3N)[C@@H](N)C[C@H]2N)[C@@H](O)[C@H](O)[C@H]1O (stereo in doubt),MIC,Fusarium graminearum [1],125 µg/mL
CCCCCCCCOC[C@@H]1O[C@@H](O[C@@H]2[C@@H](O)[C@H](O[C@@H]3O[C@@H](CN)[C@H](O)[C@@H](O)[C@@H]3N)[C@@H](N)C[C@H]2N)[C@@H](O)[C@H](O)[C@H]1O (stereo in doubt),MIC,Fusarium graminearum [1],31.3 µg/mL
NC[C@H]1O[C@H](O[C@H]2[C@H](O)[C@@H](O[C@H]3O[C@H](CO)[C@@H](O)[C@H](N)[C@H]3O)[C@H](N)C[C@@H]2N)[C@H](N)[C@@H](O)[C@@H]1O [BEKANAMYCIN],MIC,Escherichia coli [6],1.95 µg/mL
same,MIC,Staphylococcus aureus [7],< 0.98 µg/mL
same,MIC,Pseudomonas aeruginosa,1.95 µg/mL
same,MIC,Enterococcus faecalis,< 0.98 µg/mL
same,MIC,Klebsiella pneumoniae [8],1.95 µg/mL
same,MIC,Klebsiella pneumoniae [9],1.95 µg/mL
same,MIC,Rhodotorula mucilaginosa,> 250 µg/mL
same,MIC,Candida albicans [10],> 250 µg/mL
same,MIC,Saccharomyces cerevisiae,> 250 µg/mL
same,MIC,Fusarium graminearum [1],> 250 µg/mL
same,MIC,Fusarium oxysporum [11],> 250 µg/mL
OC(Cn1cncn1)(Cn1cncn1)c1ccc(F)cc1F [FLUCONAZOLE],MIC,Cryptococcus neoformans [12],> 0.195 µg/mL
same,MIC,Cryptococcus neoformans [13],1.56 µg/mL
same,MIC,Cryptococcus neoformans [14],1.56 µg/mL
same,MIC,Clavispora lusitaniae,1.56 µg/mL
same,MIC,Diutina rugosa,> 0.78 µg/mL
same,MIC,Candida tropicalis,> 25 µg/mL
same,MIC,Candida albicans [15],25 µg/mL
same,MIC,Candida albicans [16],> 200 µg/mL
same,MIC,Candida albicans [17],1.56 µg/mL
same,MIC,Candida albicans [18],> 25 µg/mL
same,MIC,Candida albicans [19],> 12.5 µg/mL
same,MIC,Candida parapsilosis [20],> 16 µg/mL
same,MIC,Candida parapsilosis [21],0.12 µg/mL
same,MIC,Fusarium graminearum [22],> 200 µg/mL
same,MIC,Fusarium graminearum [23],> 25 µg/mL
same,MIC,Fusarium graminearum [24],> 2 µg/mL
same,MIC,Fusarium graminearum [25],> 12.5 µg/mL
same,MIC,Fusarium graminearum [26],> 25 µg/mL
CCC(C)n1ncn(-c2ccc(N3CCN(c4ccc(OCC5COC(Cn6cncn6)(c6ccc(Cl)cc6Cl)O5)cc4)CC3)cc2)c1=O (stereo not given) [ITRACONAZOLE],MIC,Cryptococcus neoformans [12],0.37 µg/mL
same,MIC,Cryptococcus neoformans [13],1.56 µg/mL
same,MIC,Cryptococcus neoformans [14],0.06 µg/mL
same,MIC,Kluyveromyces marxianus,0.125 to 0.8 µg/mL
same,MIC,Clavispora lusitaniae,0.2 µg/mL
same,MIC,Diutina rugosa,0.12 µg/mL
same,MIC,Candida tropicalis,> 25 µg/mL
same,MIC,Candida albicans [15],0.75 µg/mL
same,MIC,Candida albicans [16],> 64 µg/mL
same,MIC,Candida albicans [17],> 2 µg/mL
same,MIC,Candida albicans [18],16 to 32 µg/mL
same,MIC,Candida albicans [19],8 to 16 µg/mL
same,MIC,Candida parapsilosis [20],0.5 µg/mL
same,MIC,Candida parapsilosis [21],0.015 µg/mL
same,MIC,Aspergillus flavus [27],0.125 µg/mL
NC[C@H]1O[C@H](O[C@H]2[C@H](O)[C@@H](O[C@H]3O[C@H](CO)[C@@H](O)[C@H](N)[C@H]3O)[C@H](N)C[C@@H]2N)[C@H](O)[C@@H](O)[C@@H]1O [KANAMYCIN],MIC,Cryptococcus neoformans [12],> 250 µg/mL
same,MIC,Escherichia coli [28],1.95 µg/mL
same,MIC,Staphylococcus aureus [29],< 0.98 µg/mL
same,MIC,Micrococcus luteus,1.95 µg/mL
same,MIC,Cryptococcus neoformans [13],> 125 µg/mL
same,MIC,Cryptococcus neoformans [14],> 125 µg/mL
same,MIC,Kluyveromyces marxianus,> 250 µg/mL
same,MIC,Clavispora lusitaniae,> 250 µg/mL
same,MIC,Diutina rugosa,> 250 µg/mL
same,MIC,Candida tropicalis,> 250 µg/mL
same,MIC,Candida albicans [15],> 250 µg/mL
same,MIC,Candida albicans [16],> 500 µg/mL
same,MIC,Candida albicans [17],> 250 µg/mL
same,MIC,Candida albicans [18],> 250 µg/mL
same,MIC,Candida albicans [19],> 250 µg/mL
same,MIC,Candida parapsilosis [21],> 250 µg/mL
same,MIC,Fusarium graminearum [30],> 125 µg/mL
same,MIC,Fusarium oxysporum [31],> 250 µg/mL
same,MIC,Aspergillus flavus [27],> 250 µg/mL
same,MIC,Aspergillus niger,> 250 µg/mL
OC(Cc1ccccc1Cl)(Cn1nc[nH]c1=S)C1(Cl)CC1 (stereo not given) [PROTHIOCONAZOLE],Activity,Fusarium graminearum [32],1.1 ppm
same,Activity,Fusarium graminearum [33],0.7 ppm
COC(=O)N(OC)c1ccccc1COc1ccn(-c2ccc(Cl)cc2)n1 [PYRACLOSTROBIN],Activity,Fusarium graminearum [34],1.3 ppm
same,Activity,Fusarium graminearum [35],1.2 ppm

# Source: ChEMBL document CHEMBL4257529, “Antifungal amphiphilic kanamycins: new life for an old drug” (Medchemcomm, 2018)
